Experimental data from PubChem BioAssay AID1845216 (Molecular Pharmacology Branch, DTP, NCI, 2023).
Values joined by “and” are separate entries in the source; they are usually repeats but may differ in a detail not shown here. Equal entries are not always repeated.

Tested on: SW 982 tumor spheroid viability
Test: Anticancer human tumor SW 982 cell line growth inhibition;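 also: spheroids exposed to compound for 7 days before readout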
Conditions: spheroids with HUVEC and MSC; for viability, T/C: stronger effect = lower value
Procedure, shortened: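 Complex tumor spheroids combined malignant cells with endothelial cells and mesenchymal stem cells. DNA-damaging drugs and DNA repair inhibitors were tested alone and in combination, at half-log dilutions down from clinical Cmax (top 10 microM if Cmax unknown), 0.25% DMSO final.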

[1] = curve of first compound, second compound 30 pM
[2] = curve of first compound, second compound 94.9 pM
[3] = curve of first compound, second compound 0.0003 µM
[4] = curve of first compound, second compound 0.000949 µM
[5] = curve of first compound, second compound 0.003 µM
[6] = second compound 30 pM, first compound 0.0316 µM
[7] = second compound 30 pM, first compound 0.1 µM
[8] = second compound 30 pM, first compound 0.316 µM
[9] = second compound 30 pM, first compound 1 µM
[10] = second compound 30 pM, first compound 3.16 µM
[11] = second compound 30 pM, first compound 10 µM
[12] = second compound 94.9 pM, first compound 0.0316 µM
[13] = second compound 94.9 pM, first compound 0.1 µM
[14] = second compound 94.9 pM, first compound 0.316 µM
[15] = second compound 94.9 pM, first compound 1 µM
[16] = second compound 94.9 pM, first compound 3.16 µM
[17] = second compound 94.9 pM, first compound 10 µM
[18] = second compound 0.0003 µM, first compound 0.0316 µM
[19] = second compound 0.0003 µM, first compound 0.1 µM
[20] = second compound 0.0003 µM, first compound 0.316 µM
[21] = second compound 0.0003 µM, first compound 1 µM
[22] = second compound 0.0003 µM, first compound 3.16 µM
[23] = second compound 0.0003 µM, first compound 10 µM
[24] = second compound 0.000949 µM, first compound 0.0316 µM
[25] = second compound 0.000949 µM, first compound 0.1 µM
[26] = second compound 0.000949 µM, first compound 0.316 µM
[27] = second compound 0.000949 µM, first compound 1 µM
[28] = second compound 0.000949 µM, first compound 3.16 µM
[29] = second compound 0.000949 µM, first compound 10 µM
[30] = second compound 0.003 µM, first compound 0.0316 µM
[31] = second compound 0.003 µM, first compound 0.1 µM
[32] = second compound 0.003 µM, first compound 0.316 µM
[33] = second compound 0.003 µM, first compound 1 µM
[34] = second compound 0.003 µM, first compound 3.16 µM
[35] = second compound 0.003 µM, first compound 10 µM

## COc1cc(C)[nH]c(=O)c1CN1CCc2c(Cl)cc(C(OC)C3COC3)c(Cl)c2C1=O (configuration not stated) + COc1cc2c(cc1O)CCNC21CSC2c3c(OC(C)=O)c(C)c4c(c3C(COC1=O)N1C(O)C3Cc5cc(C)c(OC)c(O)c5C(C21)N3C)OCO4
[1]
  IC50: > 10000 nM
[2]
  IC50: > 10000 nM
[3]
  IC50: > 10000 nM
[4]
  IC50: < 31.6 nM
[5]
  IC50: < 31.6 nM
[6]
  viability, T/C: 98.5%
[7]
  viability, T/C: 107%
[8]
  viability, T/C: 90.2%
[9]
  viability, T/C: 97.7%
[10]
  viability, T/C: 102%
[11]
  viability, T/C: 107%
[12]
  viability, T/C: 90.5%
[13]
  viability, T/C: 95.6%
[14]
  viability, T/C: 95.7%
[15]
  viability, T/C: 103%
[16]
  viability, T/C: 99.8%
[17]
  viability, T/C: 91.7%
[18]
  viability, T/C: 86.9%
[19]
  viability, T/C: 82.9%
[20]
  viability, T/C: 89.1%
[21]
  viability, T/C: 91.3%
[22]
  viability, T/C: 84.7%
[23]
  viability, T/C: 85.3%
[24]
  viability, T/C: 38.3%
[25]
  viability, T/C: 48.7%
[26]
  viability, T/C: 38%
[27]
  viability, T/C: 45.6%
[28]
  viability, T/C: 47.3%
[29]
  viability, T/C: 28.3%
[30]
  viability, T/C: 0.42%
[31]
  viability, T/C: 0.99%
[32]
  viability, T/C: 0.77%
[33]
  viability, T/C: 0.49%
[34]
  viability, T/C: 0.64%
[35]
  viability, T/C: 1.1%

## COc1ccc([C@@H](O)c2cc(-c3ncnc4cc(N5CCOCC5)ccc34)c(F)cc2Cl)nn1 + Cn1nnc2c(C(N)=O)ncn2c1=O
Curve of first compound, second compound 1 µM
  IC50: 6290 nM
Curve of first compound, second compound 3.16 µM
  IC50: 3830 nM
Curve of first compound, second compound 10 µM
  IC50: 4030 nM
Curve of first compound, second compound 31.6 µM
  IC50: 1180 nM
Curve of first compound, second compound 100 µM
  IC50: 283 nM
Second compound 1 µM, first compound 0.0316 µM
  viability, T/C: 90.6%
Second compound 1 µM, first compound 0.1 µM
  viability, T/C: 95.4%
Second compound 1 µM, first compound 0.316 µM
  viability, T/C: 93.3%
Second compound 1 µM, first compound 1 µM
  viability, T/C: 84.9%
Second compound 1 µM, first compound 3.16 µM
  viability, T/C: 81.6%
Second compound 1 µM, first compound 10 µM
  viability, T/C: 29.6%
Second compound 3.16 µM, first compound 0.0316 µM
  viability, T/C: 76.7%
Second compound 3.16 µM, first compound 0.1 µM
  viability, T/C: 83.8%
Second compound 3.16 µM, first compound 0.316 µM
  viability, T/C: 90.1%
Second compound 3.16 µM, first compound 1 µM
  viability, T/C: 70.4%
Second compound 3.16 µM, first compound 3.16 µM
  viability, T/C: 55.9%
Second compound 3.16 µM, first compound 10 µM
  viability, T/C: 26%
Second compound 10 µM, first compound 0.0316 µM
  viability, T/C: 76.9%
Second compound 10 µM, first compound 0.1 µM
  viability, T/C: 70%
Second compound 10 µM, first compound 0.316 µM
  viability, T/C: 73%
Second compound 10 µM, first compound 1 µM
  viability, T/C: 57.6%
Second compound 10 µM, first compound 3.16 µM
  viability, T/C: 63.2%
Second compound 10 µM, first compound 10 µM
  viability, T/C: 18.4%
Second compound 31.6 µM, first compound 0.0316 µM
  viability, T/C: 63.5%
Second compound 31.6 µM, first compound 0.1 µM
  viability, T/C: 63.2%
Second compound 31.6 µM, first compound 0.316 µM
  viability, T/C: 60.4%
Second compound 31.6 µM, first compound 1 µM
  viability, T/C: 51.5%
Second compound 31.6 µM, first compound 3.16 µM
  viability, T/C: 38.5%
Second compound 31.6 µM, first compound 10 µM
  viability, T/C: 25.5%
Second compound 100 µM, first compound 0.0316 µM
  viability, T/C: 59.9%
Second compound 100 µM, first compound 0.1 µM
  viability, T/C: 57.9%
Second compound 100 µM, first compound 0.316 µM
  viability, T/C: 48.1%
Second compound 100 µM, first compound 1 µM
  viability, T/C: 39.3%
Second compound 100 µM, first compound 3.16 µM
  viability, T/C: 32.5%
Second compound 100 µM, first compound 10 µM
  viability, T/C: 15.6%

## CC1COCCN1c1cc(-c2ccnn2C)c2ccnc(-c3ccn[nH]3)c2n1 (configuration not stated) + COc1cc2c(cc1O)CCNC21CSC2c3c(OC(C)=O)c(C)c4c(c3C(COC1=O)N1C(O)C3Cc5cc(C)c(OC)c(O)c5C(C21)N3C)OCO4
[1]
  IC50: < 31.6 nM
[2]
  IC50: < 31.6 nM
[3]
  IC50: < 31.6 nM
[4]
  IC50: < 31.6 nM
[5]
  IC50: < 31.6 nM
[6]
  viability, T/C: 30.3%
[7]
  viability, T/C: 21.2%
[8]
  viability, T/C: 16.3%
[9]
  viability, T/C: 14.8%
[10]
  viability, T/C: 16.5%
[11]
  viability, T/C: 19.5%
[12]
  viability, T/C: 28%
[13]
  viability, T/C: 19.8%
[14]
  viability, T/C: 14.6%
[15]
  viability, T/C: 12.7%
[16]
  viability, T/C: 16.6%
[17]
  viability, T/C: 18.9%
[18]
  viability, T/C: 18.7%
[19]
  viability, T/C: 16.3%
[20]
  viability, T/C: 12.6%
[21]
  viability, T/C: 10.9%
[22]
  viability, T/C: 14.7%
[23]
  viability, T/C: 14.6%
[24]
  viability, T/C: 13.8%
[25]
  viability, T/C: 10.5%
[26]
  viability, T/C: 6.7%
[27]
  viability, T/C: 4.79%
[28]
  viability, T/C: 3.55%
[29]
  viability, T/C: 1.4%
[30]
  viability, T/C: 1.23%
[31]
  viability, T/C: 1.25%
[32]
  viability, T/C: 0.44%
[33]
  viability, T/C: 0.7%
[34]
  viability, T/C: 0.39%
[35]
  viability, T/C: 0.98%

## COc1cc(C)[nH]c(=O)c1CN1CCc2c(Cl)cc(C(OC)C3COC3)c(Cl)c2C1=O (configuration not stated)
Compound 0.0316 µM
  viability, T/C: 72.5% and 105% and 108%
Compound 0.1 µM
  viability, T/C: 94.6% and 111% and 95.2%
Compound 0.316 µM
  viability, T/C: 100% and 109% and 89.6%
Compound 1 µM
  viability, T/C: 108% and 107% and 93.8%
Compound 3.16 µM
  viability, T/C: 113% and 110% and 96.4%
Compound 10 µM
  viability, T/C: 94.8% and 100% and 98.8%
Curve of compound
  IC50: > 10000 nM

## [2H]c1nc(C)nc([2H])c1-c1cc(NC[C@@H](C)c2cccc3c(C(=O)NC)ccnc23)ncn1 + COc1cc2c(cc1O)CCNC21CSC2c3c(OC(C)=O)c(C)c4c(c3C(COC1=O)N1C(O)C3Cc5cc(C)c(OC)c(O)c5C(C21)N3C)OCO4
[1]
  IC50: > 10000 nM
[2]
  IC50: > 10000 nM
[3]
  IC50: > 10000 nM
[4]
  IC50: < 31.6 nM
[5]
  IC50: < 31.6 nM
[6]
  viability, T/C: 91.1%
[7]
  viability, T/C: 100%
[8]
  viability, T/C: 98%
[9]
  viability, T/C: 93.3%
[10]
  viability, T/C: 90.3%
[11]
  viability, T/C: 101%
[12]
  viability, T/C: 95.7%
[13]
  viability, T/C: 90.7%
[14]
  viability, T/C: 98.1%
[15]
  viability, T/C: 93.8%
[16]
  viability, T/C: 89.4%
[17]
  viability, T/C: 91.2%
[18]
  viability, T/C: 87.2%
[19]
  viability, T/C: 83.2%
[20]
  viability, T/C: 79.4%
[21]
  viability, T/C: 70.3%
[22]
  viability, T/C: 74.9%
[23]
  viability, T/C: 75.4%
[24]
  viability, T/C: 37.3%
[25]
  viability, T/C: 26.5%
[26]
  viability, T/C: 44.4%
[27]
  viability, T/C: 44.1%
[28]
  viability, T/C: 42.6%
[29]
  viability, T/C: 21.9%
[30]
  viability, T/C: 0.62%
[31]
  viability, T/C: 1.1%
[32]
  viability, T/C: 1.05%
[33]
  viability, T/C: 0.69%
[34]
  viability, T/C: 0.48%
[35]
  viability, T/C: 0.77%
